Patent US8946268B2, “Modulators of HEC1 activity and methods therefor” (Taivex Therapeutics, Inc., priority 2010, dated 2015)
pIC50: −log10 of the molar value.

Experiments:
Format in all cases: cell-based
K562 = experiment: Antiproliferative activity (MTS assay), K562; details: Homo sapiens, K562, 96 h, K562 cells
Method: (§1) Antiproliferative effect is expressed as IC50 values in microMolar final concentration.
(§2) Cells were grown at 37° C. in a humidified atmosphere with 5% CO2 and 95% air. Cells were seeded in 96 well tissue culture plates.
(§3) Compound treatment started after overnight incubation of cells (TO). […] Compound was added to the plate in triplicate wells, and the plates were then incubated for 96 hours. DMSO (compounds diluents) was also included and added to the plate in control wells. Cell viability was then determined by MTS assay using CellTiter 96® AQueous non-radioactive cell proliferation assay system (Promega). A plate reader (Molecular Devices, Vmax) was used to read the optical densities, and the results were used to deduce concentration-response curves. […] The results were analyzed using linear regression software (GraphPad Prism 5; GraphPad Software Inc.).
(§4) The GI50 values (growth inhibitory activity) were determined to emphasize on the correction for the cell count at time zero; thus, the % inhibition of test drug were: [1−(T−T0)/(C−T0)]×100; and these value were used to plot the concentration-response curves, and then analyzed with linear regression software (GraphPad Prism 5).

MDA-MB-468 = experiment: Antiproliferative activity (MTS assay), MDA-MB-468; details: Homo sapiens, MDA-MB-468, 96 h, MDA-MB-468 cells
Method: as §1, §2, §3, §4

MDA-MB-231 = experiment: Antiproliferative activity (MTS assay), MDA-MB-231; details: Homo sapiens, MDA-MB-231, 96 h, MDA-MB-231 cells
Method: as §1, §2, §3, §4

Hela = experiment: Antiproliferative activity (MTS assay), Hela; details: Homo sapiens, HeLa, 96 h, Hela cells
Method: as §1, §2, §3, §4

| SMILES | pIC50 (K562) | pIC50 (MDA-MB-468) | pIC50 (MDA-MB-231) | pIC50 (Hela) |
| --- | --- | --- | --- | --- |
| Cc1cc(Nc2ccc(Br)cc2)cc(C)c1-c1csc(NC(=O)c2ccncc2)n1 [Compound 122] | 6.44 | 5.91 | 6.14 | 5.67 |
| Cc1cc(C)c(-c2csc(NC(=O)c3ccc4[nH]nnc4c3)n2)c(C)c1 [Compound 106] | < 5.00 | < 5.00 | 5.31 | < 5.00 |
| COc1ccc(-c2csc(NC(=O)c3ccccn3)n2)c(F)c1 [Compound 24] | < 5.00 | < 5.00 | < 5.00 | < 5.00 |
| COc1cc(-c2csc(NC(=O)c3ccncc3)n2)ccc1O [Compound 34] | < 5.00 | < 5.00 | < 5.00 | < 5.00 |
| COc1cc(-c2csc(NC(=O)c3cccnc3)n2)ccc1O [Compound 35] | < 5.00 | < 5.00 | < 5.00 | < 5.00 |
| CC(C)c1cc(C(C)C)c(-c2csc(NC(=O)c3ccncc3)n2)c(C(C)C)c1 [Compound 73] | < 5.00 | < 5.00 | < 5.00 | < 5.00 |
| COc1c(F)cc(-c2csc(NC(=O)c3ccncc3)n2)cc1F [Compound 62] | 5.15 | 5.26 | 5.40 | < 5.00 |
| COc1cc(-c2csc(NC(=O)c3ccnnc3)n2)ccc1O [Compound 47] | < 5.00 | < 5.00 | < 5.00 | < 5.00 |
| COCCOc1cc(C)c(-c2csc(NC(=O)c3ccncc3)n2)c(C)c1 [Compound 109] | 6.62 | 6.55 | 6.59 | 6.51 |
| Cc1cc(C)c(-c2csc(NC(=O)c3cc(F)nc(F)c3)n2)c(C)c1 [Compound 90] | 6.00 | 5.91 | 6.10 | 5.94 |
| COc1cc(C)c(-c2csc(NC(=O)c3cncs3)n2)c(C)c1 [Compound 75] | 5.43 | 5.36 | 5.63 | 5.53 |
| COc1ccc(Oc2cc(C)c(-c3csc(NC(=O)c4cc[n+]([O-])cc4)n3)c(C)c2)cc1 [Compound 120] | 6.74 | 6.60 | 6.66 | 6.80 |
| Cc1cc(C)c(-c2csc(NC(=O)c3ccsc3)n2)c(C)c1 [Compound 33] | < 5.00 | 6.10 | < 5.00 | < 5.00 |
| N#Cc1ccc(C(=O)Nc2nc(-c3ccc(O)cc3)cs2)cc1 [Compound 56] | < 5.00 | < 5.00 | < 5.00 | < 5.00 |
| COc1cc(-c2csc(NC(=O)c3ccncn3)n2)ccc1O [Compound 48] | < 5.00 | < 5.00 | < 5.00 | < 5.00 |
| Cc1cc(C)c(-c2csc(NC(=O)c3ccnc(Cl)c3)n2)c(C)c1 [Compound 64] | 6.03 | 6.01 | 6.21 | 6.08 |
| Cc1cc(-c2ccccc2)cc(C)c1-c1csc(NC(=O)c2ccncc2)n1 [Compound 53] | 6.21 | 6.32 | 6.37 | 6.32 |
| O=C(Nc1nc(-c2ccc(O)cc2)cs1)c1ccncc1 [Compound 57] | < 5.00 | < 5.00 | < 5.00 | < 5.00 |
| COc1cc(OC)c(-c2csc(NC(=O)c3ccncc3)n2)c(OC)c1 [Compound 11] | < 5.00 | < 5.00 | < 5.00 | < 5.00 |
| Cc1cc(C)c(-c2csc(NC(=O)c3cccnc3)n2)c(C)n1 [Compound 46] | < 5.00 | 5.14 | 5.13 | < 5.00 |
| Cc1cc(C)c(-c2csc(NC(=O)c3cncs3)n2)c(C)c1 [Compound 9] | 5.57 | 5.74 | 5.91 | 5.82 |
| COc1cc(C)c(-c2csc(NC(=O)Nc3ccncc3)n2)c(C)c1 [Compound 67] | 6.09 | 6.11 | 6.24 | < 5.00 |
| COc1cc(C)c(-c2csc(NC(=O)c3cc[n+]([O-])cc3)n2)c(C)c1 [Compound 72] | 5.27 | 5.32 | 5.37 | 5.57 |
| COc1ccc(Oc2cc(C)c(-c3csc(NC(=O)c4ccncc4)n3)c(Cl)c2)cc1 [Compound 131] | 7.40 | 7.30 | 7.40 | 7.22 |
| COc1ccc(-c2csc(NC(=O)c3cccnc3)n2)c(F)c1 [Compound 21] | < 5.00 | < 5.00 | < 5.00 | < 5.00 |

| SMILES | pIC50 (K562) | pIC50 (MDA-MB-468) | pIC50 (MDA-MB-231) | pIC50 (Hela) |
| --- | --- | --- | --- | --- |
| COc1ccc(-c2nc(NC(=O)c3ccccn3)sc2C)cc1 [Compound 16] | < 5.00 | < 5.00 | < 5.00 | < 5.00 |
| COc1ccc(-c2csc(NC(=O)CCc3ccccc3)n2)c(F)c1 [Compound 23] | < 5.00 | 5.15 | < 5.00 | < 5.00 |
| Cc1ccc(-c2nc(NC(=O)c3ccncc3)sc2C)cc1 [Compound 43] | < 5.00 | < 5.00 | < 5.00 | < 5.00 |
| COc1ccc(Sc2cc(C)c(-c3csc(NC(=O)c4ccnc(F)c4)n3)c(C)c2)cc1 [Compound 126] | 7.70 | 7.30 | 7.52 | 7.40 |
| Cc1ccc(-c2nc(NC(=O)c3ccc(C#N)cc3)sc2C)cc1 [Compound 30] | < 5.00 | < 5.00 | < 5.00 | < 5.00 |
| Cc1sc(NC(=O)c2cccnc2)nc1-c1ccccc1 [Compound 3] | < 5.00 | < 5.00 | < 5.00 | < 5.00 |
| Cc1ccc(-c2csc(NC(=O)c3ccc(C#N)cc3)n2)cc1 [Compound 7] | < 5.00 | < 5.00 | < 5.00 | < 5.00 |
| CC(=O)Nc1cc(C)c(-c2csc(NC(=O)c3ccncc3)n2)c(C)c1 [Compound 74] | 5.67 | 5.90 | 5.84 | 5.80 |
| COc1ccc(Oc2cc(C)c(-c3csc(NC(=O)c4ccnc(F)c4)n3)c(C)c2)cc1 [Compound 98] | 7.70 | 7.40 | 7.70 | 7.40 |
| Cc1cc(Cc2ccccc2)cc(C)c1-c1csc(NC(=O)c2ccncc2)n1 [Compound 118] | 6.82 | 6.66 | 6.62 | 6.57 |
| Cc1ccc(-c2csc(NC(=O)c3cccnc3)n2)cc1 [Compound 28] | < 5.00 | < 5.00 | < 5.00 | < 5.00 |
| Cc1cc(C)c(-c2csc(NC(=O)c3ccccn3)n2)c(C)n1 [Compound 45] | < 5.00 | 5.11 | < 5.00 | < 5.00 |
| COc1cc(C(=O)Nc2nc(-c3c(C)cc(C)cc3C)cs2)cc(Cl)n1 [Compound 87] | < 5.00 | < 5.00 | < 5.00 | < 5.00 |
| Cc1cc(I)cc(C)c1-c1csc(NC(=O)c2ccncc2)n1 [Compound 114] | 6.64 | 6.26 | 6.52 | 6.40 |
| Cc1cc(C)c(-c2csc(NC(=O)c3ccnc(N4CCN(C)CC4)c3)n2)c(C)c1 [Compound 84] | < 5.00 | 4.54 | < 5.00 | < 5.00 |
| Cc1cc(C)c(-c2csc(NC(=O)c3cc(Cl)nc(Cl)c3)n2)c(C)c1 [Compound 88] | 5.08 | 4.81 | 5.10 | < 5.00 |
| Cc1cc(C)c(-c2csc(NC(=O)c3ccncc3F)n2)c(C)c1 [Compound 77] | 5.55 | 5.56 | 5.91 | 5.64 |
| COc1cc(-c2csc(NC(=O)c3cccnc3)n2)cc(OC)c1OC [Compound 20] | < 5.00 | < 5.00 | < 5.00 | < 5.00 |
| Cc1cc(Cl)cc(C)c1-c1csc(NC(=O)c2ccncc2)n1 [Compound 55] | 6.12 | 6.05 | 6.23 | 6.14 |
| COc1ccccc1CC(=O)Nc1nc(-c2ccccc2)c(C)s1 [Compound 41] | < 5.00 | < 5.00 | < 5.00 | < 5.00 |
| Cc1cc(C)c(-c2csc(NC(=O)c3ccc4cn[nH]c4c3)n2)c(C)c1 [Compound 104] | 5.61 | 5.12 | 5.96 | < 5.00 |
| Cc1cc(Oc2ccc3c(c2)OCO3)cc(C)c1-c1csc(NC(=O)c2ccncc2)n1 [Compound 101] | 7.30 | 6.89 | 7.15 | 6.96 |
| COc1ccc(-c2csc(NC(=O)c3cccnc3)n2)cc1 [Compound 37] | < 5.00 | < 5.00 | < 5.00 | < 5.00 |
| COc1ccc(-c2csc(NC(=O)c3ccncc3)n2)c(F)c1 [Compound 26] | 5.61 | 5.65 | 5.16 | < 5.00 |
